The source of these data is PubChem BioAssay AID1259407 (Chemical Carcinogenesis Research Information System (CCRIS), 2018).

The subject of the series is CCRIS mutagenicity, Ames/micronucleus/aberration tests. In words: CCRIS mutagenicity studies.
Where [1] appears, read: Test System: MOUSE LYMPHOMA, Strain/Indicator: L5178Y (TK+/TK-), Metabolic Activation: NONE, Method: SUSPENSION/PLATE.
Where [2] appears, read: Test System: AMES SALMONELLA TYPHIMURIUM, Strain/Indicator: TA98, Metabolic Activation: NONE, Method: PREINCUBATION
Where [3] appears, read: Test System: AMES SALMONELLA TYPHIMURIUM, Strain/Indicator: TA100, Metabolic Activation: NONE, Method: PREINCUBATION
The mark [4] stands for this setting: Test System: AMES SALMONELLA TYPHIMURIUM, Strain/Indicator: TA1535, Metabolic Activation: NONE, Method: PREINCUBATION
Setting [5] is: Test System: AMES SALMONELLA TYPHIMURIUM, Strain/Indicator: TA1538, Metabolic Activation: NONE, Method: PREINCUBATION

Activity calls are given as the source filed them. How the calls were made is not given here.

In the case of `C=C(C)C(=O)OCCOCCOCCOCCOC(=O)C(=C)C`, under setting [1], the mutagenic call is “active; positive”.

For `ClCC(Cl)COCC(Cl)CCl` (stereo unspecified), the mutagenic call was “inactive; negative” under setting [2]; “active; positive” (Test System: AMES SALMONELLA TYPHIMURIUM, Strain/Indicator: TA98, Metabolic Activation: RAT LIVER S-9, AROCLOR 1254 (10%), Method: PREINCUBATION); “inactive; negative” under setting [3]; “active; positive” (Test System: AMES SALMONELLA TYPHIMURIUM, Strain/Indicator: TA100, Metabolic Activation: RAT LIVER S-9, AROCLOR 1254 (10%), Method: PREINCUBATION); “inactive; negative” under setting [4]; “active; positive” (Test System: AMES SALMONELLA TYPHIMURIUM, Strain/Indicator: TA1535, Metabolic Activation: RAT LIVER S-9, AROCLOR 1254 (10%), Method: PREINCUBATION). Further, the mutagenic call is “inactive; negative” under setting [5] and “inactive; negative” (Test System: AMES SALMONELLA TYPHIMURIUM, Strain/Indicator: TA1538, Metabolic Activation: RAT LIVER S-9, AROCLOR 1254 (10%), Method: PREINCUBATION).

On to `Oc1ccc2ccccc2c1N=Nc1ccc(N=Nc2ccccc2)cc1`, for which the mutagenic call was “inactive; negative” (Test System: AMES SALMONELLA TYPHIMURIUM, Strain/Indicator: TA98, Metabolic Activation: NONE, Method: STANDARD PLATE) and “inactive; negative” (Test System: AMES SALMONELLA TYPHIMURIUM, Strain/Indicator: TA100, Metabolic Activation: NONE, Method: STANDARD PLATE).

Take `O`: the mutagenic call reads like this: (End Point: In vitro chromosomal aberrations, Test System: D824 human dental pulp cells, Metabolic Activation: None) “inactive; negative”; (End Point: In vitro chromosomal aberrations, Test System: D824 human dental pulp cells, Metabolic Activation: Rat, Liver, Postmitochondrial supernate (5%)) “inactive; negative”; (Test System: AMES SALMONELLA TYPHIMURIUM, Strain/Indicator: TA97, Metabolic Activation: HAMSTER, LIVER, S-9, AROCLOR 1254 (10 OR 30%), Method: PREINCUBATION) “inactive; negative”; (Test System: AMES SALMONELLA TYPHIMURIUM, Strain/Indicator: TA97, Metabolic Activation: NONE, Method: PREINCUBATION) “inactive; negative”; (Test System: AMES SALMONELLA TYPHIMURIUM, Strain/Indicator: TA97, Metabolic Activation: RAT, LIVER, S-9, AROCLOR 1254 (10 OR 30%), Method: PREINCUBATION) “inactive; negative”; (Test System: AMES SALMONELLA TYPHIMURIUM, Strain/Indicator: TA97, Metabolic Activation: RAT, LIVER, S-9, AROCLOR 1254, Method: PREINCUBATION) “inactive; negative”. Moreover, the mutagenic call by setting is: (Test System: AMES SALMONELLA TYPHIMURIUM, Strain/Indicator: TA98, Metabolic Activation: HAMSTER, LIVER, S-9, AROCLOR 1254 (10 OR 30%), Method: PREINCUBATION) “inactive; negative”; under setting [2], “inactive; negative”; (Test System: AMES SALMONELLA TYPHIMURIUM, Strain/Indicator: TA98, Metabolic Activation: RAT LIVER S-9, PHENOBARBITAL AND BETA-NAPHTHOFLAVONE, Method: PREINCUBATION) “inactive; negative”; (Test System: AMES SALMONELLA TYPHIMURIUM, Strain/Indicator: TA98, Metabolic Activation: RAT, LIVER, S-9, AROCLOR 1254 (10 OR 30%), Method: PREINCUBATION) “inactive; negative”; (Test System: AMES SALMONELLA TYPHIMURIUM, Strain/Indicator: TA98, Metabolic Activation: RAT, LIVER, S-9, PHENOBARBITAL AND BETA-NAPHTHOFLAVONE, Method: PREINCUBATION) “inactive; negative”; (Test System: AMES SALMONELLA TYPHIMURIUM, Strain/Indicator: TA100, Metabolic Activation: HAMSTER, LIVER, S-9, AROCLOR 1254 (10 OR 30%), Method: PREINCUBATION) “inactive; negative”. The mutagenic call is “inactive; negative” under setting [3]; “inactive; negative” (Test System: AMES SALMONELLA TYPHIMURIUM, Strain/Indicator: TA100, Metabolic Activation: RAT LIVER S-9, PHENOBARBITAL AND BETA-NAPHTHOFLAVONE, Method: PREINCUBATION); “inactive; negative” (Test System: AMES SALMONELLA TYPHIMURIUM, Strain/Indicator: TA100, Metabolic Activation: RAT, LIVER, S-9, AROCLOR 1254 (10 OR 30%), Method: PREINCUBATION); “inactive; negative” (Test System: AMES SALMONELLA TYPHIMURIUM, Strain/Indicator: TA100, Metabolic Activation: RAT, LIVER, S-9, PHENOBARBITAL AND BETA-NAPHTHOFLAVONE, Method: PREINCUBATION); “inactive; negative” (Test System: AMES SALMONELLA TYPHIMURIUM, Strain/Indicator: TA102, Metabolic Activation: NONE, Method: PREINCUBATION); “inactive; negative” (Test System: AMES SALMONELLA TYPHIMURIUM, Strain/Indicator: TA102, Metabolic Activation: RAT, LIVER, S-9, AROCLOR 1254, Method: PREINCUBATION). For the same compound, the mutagenic call reads like this: (Test System: AMES SALMONELLA TYPHIMURIUM, Strain/Indicator: TA104, Metabolic Activation: NONE, Method: PREINCUBATION) “inactive; negative”; (Test System: AMES SALMONELLA TYPHIMURIUM, Strain/Indicator: TA104, Metabolic Activation: RAT, LIVER, S-9, SODIUM PHENOBARBITAL AND 5,6-BENZOFLAVONE, Method: PREINCUBATION) “inactive; negative”; (Test System: AMES SALMONELLA TYPHIMURIUM, Strain/Indicator: TA1535, Metabolic Activation: HAMSTER, LIVER, S-9, AROCLOR 1254 (10 OR 30%), Method: PREINCUBATION) “inactive; negative”; under setting [4], “inactive; negative”; (Test System: AMES SALMONELLA TYPHIMURIUM, Strain/Indicator: TA1535, Metabolic Activation: RAT LIVER S-9, PHENOBARBITAL AND BETA-NAPHTHOFLAVONE, Method: PREINCUBATION) “inactive; negative”; (Test System: AMES SALMONELLA TYPHIMURIUM, Strain/Indicator: TA1535, Metabolic Activation: RAT, LIVER, S-9, AROCLOR 1254 (10 OR 30%), Method: PREINCUBATION) “inactive; negative”. Further, the mutagenic call reads like this: (Test System: AMES SALMONELLA TYPHIMURIUM, Strain/Indicator: TA1535, Metabolic Activation: RAT, LIVER, S-9, PHENOBARBITAL AND BETA-NAPHTHOFLAVONE, Method: PREINCUBATION) “inactive; negative”; (Test System: AMES SALMONELLA TYPHIMURIUM, Strain/Indicator: TA1537, Metabolic Activation: HAMSTER, LIVER, S-9, AROCLOR 1254 (30%), Method: PREINCUBATION) “inactive; negative”; (Test System: AMES SALMONELLA TYPHIMURIUM, Strain/Indicator: TA1537, Metabolic Activation: NONE, Method: PREINCUBATION) “inactive; negative”; (Test System: AMES SALMONELLA TYPHIMURIUM, Strain/Indicator: TA1537, Metabolic Activation: RAT LIVER S-9, PHENOBARBITAL AND BETA-NAPHTHOFLAVONE, Method: PREINCUBATION) “inactive; negative”; (Test System: AMES SALMONELLA TYPHIMURIUM, Strain/Indicator: TA1537, Metabolic Activation: RAT, LIVER, S-9, AROCLOR 1254 (30%), Method: PREINCUBATION) “inactive; negative”; (Test System: AMES SALMONELLA TYPHIMURIUM, Strain/Indicator: TA1537, Metabolic Activation: RAT, LIVER, S-9, PHENOBARBITAL AND BETA-NAPHTHOFLAVONE, Method: PREINCUBATION) “inactive; negative”. In addition, the mutagenic call reads like this: under setting [5], “inactive; negative”; (Test System: AMES SALMONELLA TYPHIMURIUM, Strain/Indicator: TA1538, Metabolic Activation: RAT LIVER S-9, PHENOBARBITAL AND BETA-NAPHTHOFLAVONE, Method: PREINCUBATION) “inactive; negative”; (Test System: E. COLI, Strain/Indicator: WP2UVRA/PKM101, Metabolic Activation: NONE, Method: PREINCUBATION) “inactive; negative”; (Test System: E. COLI, Strain/Indicator: WP2UVRA/PKM101, Metabolic Activation: RAT, LIVER, S-9, SODIUM PHENOBARBITAL AND 5,6-BENZOFLAVONE, Method: PREINCUBATION) “inactive; negative”; (Test System: E. COLI, Strain/Indicator: WP2UVRA, Metabolic Activation: NONE, Method: PREINCUBATION) “inactive; negative”; (Test System: E. COLI, Strain/Indicator: WP2UVRA, Metabolic Activation: RAT, LIVER, S-9, SODIUM PHENOBARBITAL AND 5,6-BENZOFLAVONE, Method: PREINCUBATION) “inactive; negative”. For the same compound, the mutagenic call is “inactive; negative” (Test System: E.COLI, Strain/Indicator: WP2UVRA, Metabolic Activation: NONE, Method: PREINCUBATION); “inactive; negative” (Test System: E.COLI, Strain/Indicator: WP2UVRA, Metabolic Activation: RAT LIVER S-9, PHENOBARBITAL AND BETA-NAPHTHOFLAVONE, Method: PREINCUBATION); “inactive; negative” under setting [1]; “active; positive” (Test System: MOUSE LYMPHOMA, Strain/Indicator: L5178Y (TK+/TK-), Metabolic Activation: RAT, LIVER, S-9, AROCLOR 1254, Method: SUSPENSION/PLATE).
